Test results published in ChEMBL document CHEMBL2321807, “Synthesis and in vitro biological evaluation of lipophilic cation conjugated photosensitizers for targeting mitochondria” (Bioorg Med Chem, 2013).
Calls of active or inactive are those of the source. No cut-off for these calls is given here.

Legend:
Colon 26 [1] = experiment: Dark toxicity against mouse Colon 26 cells up to 5 uM after 24 hrs by MTT assay; type: functional, cell-based
[2] = n-octanol-water distribution coefficient, log D of the compound at pH 7.4 by shake flask method; type: physicochemical
[3] = Drug uptake in human MCF7 cells mitochondria at 5 uM after 14 hrs by Rh-123-based dual fluorescence staining method; type: ADME, cell-based; conditions: mcf7, 14 h
Colon 26 [4] = experiment: Phototoxicity against mouse Colon 26 cells incubated for 24 hrs prior to irradiation measured after 30 mins by MTT assay; type: functional, cell-based; conditions: Colon 26, light or radiation study
Colon 26 [5] = experiment: Phototoxicity against mouse Colon 26 cells up to 5 uM incubated for 24 hrs prior to irradiation measured after 30 mins by MTT assay; type: functional
Colon 26 [6] = experiment: Drug uptake in mouse Colon 26 cells at 5 uM after 24 hrs by fluorimetric analysis relative to CMP-OH; type: ADME, cell-based; conditions: colon 26, 24 h
Colon 26 [7] = experiment: Drug uptake in mouse Colon 26 cells at 5 to 10 uM after 24 hrs by fluorimetric analysis; type: ADME, cell-based; conditions: colon 26, 24 h
Colon 26 [8] = experiment: Drug uptake in mouse Colon 26 cells at 10 uM after 24 hrs by fluorimetric analysis relative to CMP-OH; type: ADME, cell-based; conditions: colon 26, 24 h
Colon 26 [9] = experiment: Drug uptake in mouse Colon 26 cells assessed per cell at 5 uM after 24 hrs by fluorimetric analysis; type: ADME, cell-based; conditions: colon 26, 24 h
[10] = Drug uptake in human MCF7 cells cytoplasm at 5 uM after 14 hrs by Rh-123-based dual fluorescence staining method; type: ADME, cell-based; conditions: mcf7, 14 h

SMILES	logD [2]	Drug uptake [3]	fold change (FC) (Colon 26 [6])	Drug uptake (Colon 26 [7])	fold change (FC) (Colon 26 [8])	Drug uptake (Colon 26 [9])	Drug uptake [10]	Activity (Colon 26 [1])	IC50 (Colon 26 [4])	Activity (Colon 26 [5])
C1=Cc2nc1c(-c1ccccc1)c1nc(c(-c3ccccc3)c3ccc([nH]3)c(-c3ccccc3)c3ccc([nH]3)c2-c2ccccc2)C=C1								inactive		
CCN(CC)c1ccc2c(-c3ccccc3C(=O)O)c3ccc(=[N+](CC)CC)cc-3oc2c1 [RHODAMINE B]	2.07									
CCN(CC)c1ccc2c(-c3ccccc3C(C)=O)c3ccc(=[N+](CC)CC)cc-3oc2c1								inactive		inactive
CCN(CC)c1ccc2c(-c3ccccc3C(=O)OCCCOc3ccc(-c4c5nc(c(-c6ccccc6)c6ccc(s6)c(-c6ccccc6)c6nc(c(-c7ccccc7)c7ccc4s7)C=C6)C=C5)cc3)c3ccc(=[N+](CC)CC)cc-3oc2c1.[Cl-]	2.01	Active	10.6	Active	7		Active	inactive	2360 nM	>70%

Now from value to molecule, other results behind:

logD [2]	Drug uptake [3]	fold change (FC) (Colon 26 [6])	Drug uptake (Colon 26 [7])	fold change (FC) (Colon 26 [8])	Drug uptake (Colon 26 [9])	Drug uptake [10]	SMILES	Activity (Colon 26 [1])	IC50 (Colon 26 [4])	Activity (Colon 26 [5])
1.79	Active	8.3	Active	7			C1=Cc2nc1c(-c1ccccc1)c1ccc(s1)c(-c1ccccc1)c1nc(c(-c3ccc(OCCC[P+](c4ccccc4)(c4ccccc4)c4ccccc4)cc3)c3ccc(s3)c2-c2ccc(OCCC[P+](c3ccccc3)(c3ccccc3)c3ccccc3)cc2)C=C1.[Br-].[Br-]	inactive	1670 nM	>70%
2.3					0.19 fmol		Oc1ccc(-c2c3nc(c(-c4ccccc4)c4ccc(s4)c(-c4ccccc4)c4nc(c(-c5ccccc5)c5ccc2s5)C=C4)C=C3)cc1	inactive		inactive
2.04	Not Active	18.9	Active	14			C1=Cc2nc1c(-c1ccccc1)c1ccc(s1)c(-c1ccccc1)c1nc(c(-c3ccc(OCCC[P+](c4ccccc4)(c4ccccc4)c4ccccc4)cc3)c3ccc(s3)c2-c2ccccc2)C=C1.[Br-]	inactive	900 nM	>70%
